By Ki is commonly meant a dissociation constant, usually derived from enzyme kinetics or from competition with a known ligand. Low readings indicate a stronger hold on the target, high ones a looser hold on the target. One may read the pKa as the negative logarithm of the acid dissociation constant. The low end stands for a group that gives up its proton readily, the high end for a group that holds its proton tightly.

The target in one series is Cytochrome P450 2C9 (Homo sapiens, UniProt P11712). Put plainly: Binding affinity to CYP2C9.
Series [1] can be described thus: Dissociation constant, pKa of the compound.

Molecules are shown by their SMILES.

Sequence of Cytochrome P450 2C9 (P11712 whole entry): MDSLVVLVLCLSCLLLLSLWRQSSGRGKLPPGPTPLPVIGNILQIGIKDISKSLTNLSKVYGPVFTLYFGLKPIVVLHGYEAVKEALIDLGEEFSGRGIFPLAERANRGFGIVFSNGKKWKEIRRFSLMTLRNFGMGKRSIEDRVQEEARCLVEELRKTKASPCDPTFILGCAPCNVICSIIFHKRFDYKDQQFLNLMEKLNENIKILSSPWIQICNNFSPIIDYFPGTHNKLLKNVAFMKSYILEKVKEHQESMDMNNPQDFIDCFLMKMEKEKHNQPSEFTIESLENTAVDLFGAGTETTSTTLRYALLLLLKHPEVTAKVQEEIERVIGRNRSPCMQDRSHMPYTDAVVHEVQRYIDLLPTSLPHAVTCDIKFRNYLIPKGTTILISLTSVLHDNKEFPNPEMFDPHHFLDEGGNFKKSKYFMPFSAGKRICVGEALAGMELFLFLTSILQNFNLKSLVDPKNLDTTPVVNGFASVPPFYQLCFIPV

In turn, `COc1ccc(C(=O)c2c(C)oc3ccccc3c2=O)cc1` came in with a Ki at Cytochrome P450 2C9 of 5930 nM.

In series [1], `CCc1oc2ccccc2c(=O)c1C(=O)c1ccc(O)cc1` displayed a pKa of 7.74. The compound further yielded a Ki on Cytochrome P450 2C9 of 1420 nM.

`CCCc1oc2ccccc2c(=O)c1C(=O)c1ccc(O)cc1` displayed a pKa in series [1] of 7.74. The Ki on Cytochrome P450 2C9 was determined as 656 nM.

In turn, `Cc1oc2ccccc2c(=O)c1C(=O)c1ccc(O)cc1` yielded a pKa in series [1] of 7.74. The compound further showed a Ki at Cytochrome P450 2C9 of 6740 nM.

For `CCc1oc2ccccc2c(=O)c1C(=O)c1cc(I)c(O)c(I)c1`, in series [1], the pKa was determined as 4.89. This compound returned a Ki at Cytochrome P450 2C9 of 23 nM.

`CCc1oc2ccccc2c(=O)c1C(=O)c1ccncc1`: affinity at Cytochrome P450 2C9 was put at a Ki of 4870 nM.

For `Cc1oc2ccccc2c(=O)c1C(=O)c1cc(I)c(O)c(I)c1`, the pKa in series [1] stood at 4.89. In addition, at Cytochrome P450 2C9, the affinity corresponds to a Ki of 41 nM.

For `CCc1oc2ccccc2c(=O)c1C(=O)c1ccc(OC)cc1`, on Cytochrome P450 2C9, the Ki stood at 6480 nM.

At Cytochrome P450 2C9, `CCCc1oc2ccccc2c(=O)c1C(=O)c1ccc(OC)cc1` registered a Ki of 3120 nM.

On to `CCCc1oc2ccccc2c(=O)c1C(=O)c1cc(I)c(OC)c(I)c1`, for which, on Cytochrome P450 2C9, the Ki was found to be 44.3 nM.

Regarding `CCCc1oc2ccccc2c(=O)c1C(=O)c1cc(I)c(O)c(I)c1`, the pKa in series [1] came to 4.89. Further, the Ki at Cytochrome P450 2C9 was 4.2 nM.

For the compound `CCc1oc2ccccc2c(=O)c1C(=O)c1cc(Br)c(O)c(Br)c1`, the pKa in series [1] came out at 4.72.

The values are drawn from ChEMBL document CHEMBL1157143, “Modeling and synthesis of novel tight-binding inhibitors of cytochrome P450 2C9” (Bioorg Med Chem, 2008).
